Experimental data taken from patent US11434490B2, “Fluorogen-binding RNA aptamers” (CENTRE NATIONAL DE LA RECHERCHE SCIENTIFIQUE, priority 2017, dated 2022).

Columns and labels:
HEK293T cells = assay: Cellular imaging of transfected Mango tagged RNAs; format: cell-based; settings: fixed cells
Experimental: HEK293T cells were grown in Dulbecco Modified Eagle's Medium containing 10% Fetal Bovine Serum, 2 mM D-Glucose, 2 mM L-Glutamine, 1 mM Sodium Pyruvate and 100 U/ml Penicillin/Streptomycin (Thermo Fisher) and maintained at 37° C. with 5% CO2 in a humidified incubator. Cells used for imaging were cultured in Ibidi glass bottomed 8-well chamber slides (Ibidi GmbH).
RNA was transfected directly into 8-well chamber slides using the Lipofectamine-based CRISPRMAX reagent following the manufacturers guidelines (Invitrogen). Initially 125 nM RNA containing 10 mM Sodium Phosphate buffer (pH 7.2), 100 mM KCl and 1 mM MgCl2 was incubated at room temperature followed by a 1:1 dilution in OptiMEM prior to transfection. The RNA transfected was incubated at 37° C. for 1 hour in complete growth medium.
Cells were fixed in PBS containing 4% paraformaldehyde for 10 min on ice (Thermo Fisher) followed by permeabilization in 0.2% Triton X-100 for 10 min at room temperature. Cells were first blocked (2% BSA in PBS) for 30 min followed by primary antibody (1:50-1:500 dilutions) incubation for 120 min in blocking solution.
Primary antibodies used here were: Anti-Ribosomal Protein S6 (MAB5436, R&D Systems), Anti-ATP5B (ab14730, Abcam), Anti-GW182 (ab7052, Abcam), Anti-EEA-1 (ab70521, Abcam), Anti-LSm3 (NBP2-14206, Novus Biologicals), Anti-TIAR (sc-398372, Santa Cruz). Secondary antibodies used were Donkey Anti-mouse and Donkey Anti-Rabbit Alexa Fluor 680 (Molecular Probes). Primary antibodies were washed three times for 20 min each in blocking solution followed by incubation with secondary antibody at 1:500 dilution for 60 min, which was subsequently washed as above.
To visualize the nuclear boundary in live cells, a plasmid expressing a fluorescently tagged histone protein (EBFP2-H2B-6, Addgene plasmid 55243) was transfected using FuGene 6 (Promega) 24 h prior to RNA transfection. […] Following incubation of the RNA transfection, the cells were washed once with PBS and replaced with live-cell imaging media (Fluorobrite DMEM supplemented with 20 mM HEPES, Invitrogen). Live and fixed cell images were taken using a Zeiss Elyra wide-field microscope by exciting at 405 nm (Blue), 488 nm (Green) and 642 nm (Far-Red) and detecting at 420-480 nm, 495-550 nm and >650 nm, respectively. Live cells were maintained at 37° C. with 5% CO2 in a stage top incubator (Tokai Hit). Images were processed using FIJI and spot detection analysis was performed on each maximum projection by the spot detector plugin in the ICY image analysis software, which detects significant foci with a pixel area 3×3 pixels.

[1] = cited from earlier work
[2] = Fluorescence titration, binding affinity for TO1-Biotin; settings: for Kd: ligand TO1-B (TO1-Biotin)
Source text: (§1) FIG. 2|RNA Mango I, II, III and IV core sequences and their properties. (a) Color coded alignment of RNA Mango I, II, III and IV. G residues in yellow are protected from DMS cleavage (data from panel d) when folded in the presence of fluorophore. Quadruplex stacks and their associated propeller sequences are numbered 1 through 4. The GAAA isolation motif of Mango I, together with two adenines essential for binding, are shown in green and red respectively. Purple shading represents a flanking stem region common for all four Mango aptamers. Schematic: A tertiary structure schematic of Mango I, showing tier 1, 2 and 3 of its quadruplex structure (T1, T2 and T3) and color-coded as in (a). […] Bottom: Top view of the Mango I core (PBD ID: 5V3F), showing the T3 tier of the quadruplex and relevant propeller residues, color coding matches the schematic and panel a. […] KD values are shown next to each titration. (c) Same as for panel b but using 20 nM TO3-Biotin. Data for panels b and c have been normalized such that Mango I has a maximum fluorescence of 1. Error bars are standard deviation of three replicates. (d) DMS chemical protection patterns for the four Mango aptamers. 3′ end-labelled RNA (terminal ^32pCp shown as a black asterisk) was subjected to DMS chemical modification followed by reduction by NaBH4 and aniline cleavage as described in the methods. […] Legend: T1—denatured T1 ladder; OH—partial alkaline hydrolysis ladder; (−) DMS—denatured reaction with ddH2O added in place of DMS; 80° C.
(§2) Fluorescence data was gathered using a Varian Cary Eclipse Spectrophotometer unless otherwise stated. […] Fluorescence was measured at the maximum excitation and emission wavelengths of each complex (FIG. 13).
Where F([RNA]) is the fluorescence as a function of RNA concentration [RNA], Fmax is the maximal fluorescence of the bound complex and Funbound the fluorescence of the unbound fluorophore. When the fluorescence of Funbound was undetectable, it was set to zero.
(§3) Fluorescence readings were recorded using a Varian Cary Eclipse Spectrophotometer set to measure at the maximum excitation and emission wavelengths of the Mango II aptamer dye complex. Fluorescence titrations were performed in Mango selection buffer (WB: 140 mM KCl, 1 mM MgCl2, 10 mM NaH2PO4 pH 7.2, 0.05% Tween-20).

[3] = Fluorescence enhancement of TO1-Biotin; format: biochemical; settings: ligand TO1-B; calculated relative to wt from the binding titration
Experimental: (§4) The bandwidth for all measurements was 1.5 nm for all experiments. Measurements were performed in a 0.2 cm path length cuvette in a background of 20 mM MOPS pH 7.0, 150 mM KCl, 10 μM EDTA. Fluorescence readings were taken in the absence of RNA at a ligand concentration of 0.82 μM. A concentrated, annealed stock of RNA was then added to the cuvette resulting in a final concentration of 2 μM RNA and allowed to equilibrate for 1 minute prior to taking an emission reading. Fluorescence enhancement was determined by dividing the fluorescence signal of ligand in the presence of RNA by the fluorescence signal in the absence of RNA corrected for the background of the instrument.

[4] = Fluorescence enhancement of TO3-Biotin; format: biochemical; settings: ligand TO3-B; calculated relative to wt from the binding titration
Experimental: as §4

[5] = Fluorescence titration, binding affinity for TO3-Biotin; settings: ligand TO3-B (TO3-Biotin)
Source text: as §1, §2
Or to the following equation for TO3-Biotin and NMM experiments: F([RNA])=Fmax[RNA]/(KD+[RNA])+Funbound (Eq. 2) Fmax was determined using Eq. 1 or Eq. 2 as appropriate. Temperature Dependent Fluorescence and UV Melting Curves
as §3

[6] = Photobleaching under constant illumination; settings: identical illumination conditions, on average
Experimental: FIG. 16|Formation of 5S-Mango foci and their dynamics in live cells. (a) 5S-Mango IV imaged post cell fixation at 5, 15, 30 and 60 mins after transfection using Lipofectamine based CRISPRMAX transfection reagent. […] (c) Root mean-squared displacement (RMSD) of three observed foci with different diffusive behaviors, fast (Green), slow (Blue) and static (Red) shown in Video 3. Scale bars are 10 μm and arrows indicate foci of interest. (d) Normalized photobleaching traces of 5S-F30-Mango I and IV compared to 5S-F30-dBroccoli under constant illumination with an exposure time of 200 ms. Photobleaching half-lives are stated in the table adjacent and were calculated from an exponential fit of each curve.

[7] = Salt dependence of Mango/TO1-Biotin fluorescence: K+ titration; format: binding; settings: 25 nM RNA, 50 nM TO1-Biotin, 10 mM Tris pH 7.2
Experimental: (§5) FIG. 10|Salt dependence of new Mango variants. Dependence of fluorescence of each Mango for (a) K^+, (b) Na^+ in place of K^+, and (c) Mg^2+ ions in a buffer containing 140 mM K^+. […] 10 mM Tris buffer (pH 7.2) was used in place of phosphate of the WB buffer to avoid monovalent counter ions. Color-coding is as follows: Black—Mango I, Blue—Mango II, Green—Mango III, Orange—Mango IV. Hill coefficients are fitted to dark points. Points in lighter shade have been excluded from the fit. Error bars are standard deviations of three replicates.

[8] = Brightness and photophysics of Mango fluorophore complexes; format: physicochemical
Source text: as §1
FIG. 13|Photophysics: excitation/emission. (a) Excitation (dark curve) and emission (light curve) spectra of each Mango. All Mangos have Δex max=510 nm and Δem max=535 nm. Color-coding is as follows: Black—Mango I, Blue—Mango II, Green—Mango III, Red—Mango IV.
as §2

[9] = Salt dependence of Mango/TO1-Biotin fluorescence: Na+ in place of K+; format: binding
Experimental: as §5

[10] = Salt dependence of Mango/TO1-Biotin fluorescence: Mg2+ titration; settings: in the presence of potassium; Mg2+ 256 mM
Experimental: as §5

[11] = Formaldehyde resistance assay; format: physicochemical; settings: in vitro, TO1-Biotin
Experimental: FIG. 15|Effect of formaldehyde on Mango fluorescence. […] In (b) RNA is incubated with the corresponding amounts of formaldehyde first for one hour, then TO1-Biotin is added. Data for each panel is normalized to RFU at the 0% formaldehyde, 0 min point.
RNA Mango aptamers were incubated with TO1-Biotin in WB buffer for at least one hour until equilibrium fluorescence was reached. […] Fluorescence was measured as a kinetic run at a rate of 2 readings per minute using a Varian Cary Eclipse Fluorescence Spectrophotometer, ex/em=510±2.5/535±5 nm.

5S-F30-Mango IV: 5S rRNA tagged with Mango IV in F30 scaffold; SEQ ID NO: 6894
foci formation after transfection (HEK293T cells): consistently exhibit visible foci
fraction of foci that are clearly nuclear (HEK293T cells): ~5%
fraction of foci that are cytoplasmic (HEK293T cells): ~85%
mean intensity of foci against 5S-F30-Control background (HEK293T cells; 200 nM TO1-Biotin): two to three-fold higher

CN1C(=Cc2cc[n+](C)c3ccccc23)Sc2ccccc21 [TO1, Thiazole Orange]
fluorescence quantum yield ϕ ([1]; aqueous solution): 2×10^−4
intracellular half-life [1]: short intracellular half-life
membrane permeability [1]: plasma and nuclear membrane permeability
fluorescence quantum yield ([1]; inserted into double-stranded helical nucleic acids): 0.11

Mango II - A12U: Mango-II point mutant; SEQ ID NO: 6908 (GGCACGUACGAAGGUGAGGAGAGGAAGAGGAGAGUACGUGC; chemistry not given here)
Kd [2]: 0.0004 ± 7e-05 µM
FIE (fluorescence enhancement) † [3]: 1342 †

Mango II - A15U A20U A25U A26U A31U: Mango-II five-fold mutant; SEQ ID NO: 6910 (GGCACGUACGAAGGUGAGGUGAGGUUGAGGUGAGUACGUGC; chemistry not given here)
Kd [2]: 0.00192 ± 0.00039 µM
FIE (fluorescence enhancement) † [3]: 1133 †

Mango II - A15U A20U A25U: Mango-II triple mutant; SEQ ID NO: 6911 (GGCACGUACGAAGGUGAGGUGAGGUAGAGGAGAGUACGUGC; chemistry not given here)
Kd [2]: 0.00076 ± 0.00024 µM
FIE (fluorescence enhancement) † [3]: 1329 †

Mango II - A17U: Mango-II point mutant; SEQ ID NO: 6909 (GGCACGUACGAAGGAGAGGUGAGGAAGAGGAGAGUACGUGC; chemistry not given here)
Kd [2]: 0.001 ± 0.00016 µM
FIE (fluorescence enhancement) † [3]: 1237 †

Mango II - A22C: Mango-II point mutant; SEQ ID NO: 6906 (GGCACGUACGAAGGAGAGGAGAGGCAGAGGAGAGUACGUGC; chemistry not given here)
FIE (fluorescence enhancement) † [4]: 37 †
Kd [5]: 0.0051 ± 0.0014 µM
Kd [2]: 0.0009 ± 0.0002 µM
FIE (fluorescence enhancement) † [3]: 1407 †

Mango II - A22G: Mango-II point mutant; SEQ ID NO: 6907 (GGCACGUACGAAGGAGAGGAGAGGGAGAGGAGAGUACGUGC; chemistry not given here)
FIE (fluorescence enhancement) † [4]: 52 †
Kd [5]: 0.0076 ± 0.0037 µM
Kd [2]: 0.0064 ± 0.0015 µM
FIE (fluorescence enhancement) † [3]: 1224 †

Mango-IV: minimal construct engineered from isolate R5-NMM-5
bleaching half-lives longer than RNA Spinach [6]: 10 times
Kd [7]: 64 ± 24 mM
Hill Coefficients K^+ ([7]; * estimated from initial rise of fluorescence): 1.5 ± 0.2*
TO1-Biotin binding affinity (in words) [2]: slightly weaker affinities than Mango-I
decrease in binding affinity on replacing CGA with GAA ([2]; Mango-IV sequence variant against Mango-IV): four-fold
brightness of the TO1-Biotin bound complex ([8]; TO1-Biotin complex): 32,000 M^−1cm^−1
brighter than Mango-I ([8]; TO1-Biotin, FIG. 2b): 3 fold
fluorescence in the presence of sodium ions [9]: limited fluorescence response
effect of high levels of Mg^2+ on fluorescence [10]: significantly resistant
resistance to formaldehyde [11]: substantially resistant to formaldehyde
